What was measured:
[1] = tested on: constitutively GA-deficient transgenic dwarf soybean line 719; experiment: Experiment II second greenhouse test, seed imbibition, GA-deficient soybean; format: in vivo, Glycine max; conditions: seeds imbibed 6 hours
Protocol: (The compounds are tested in Experiment I at only one concentration, i.e., 0.25 mg/ml). Test tubes contained […] of ethanol solution per tube. Final volumes are made up to 30 ml with deionized water. After shaking, the treatment solutions (15 ml each) are transferred to each of two 50 ml test tubes. […] Twenty seeds are used in each treatment. Dry seed, ethanol/water-imbibed seed (1% ethanol in water, v/v), and water-imbibed seeds are included as controls. Seeds are imbibed for 6 hours in the test solutions, then planted in bread pans containing Metromix 350 (The Scotts Company, Marysville, Ohio), and covered with 0.5″ Metro-mix. Covered pans are transferred to the greenhouse and subirrigated. Illumination is at a light intensity of 300-400 μmolm^−2s^−1 photosynthetic photon flux; 16 hours light/8 hours dark. Subsequent waterings are also through sub-irrigation until the test is terminated three weeks later. Observations included the number of dwarf, intermediate, and tall plants; plant height; uniformity of rescue; and any visual effects. Digital photographs are also taken.

[2] = tested on: wild-type soybean line A3237; experiment: Experiment I greenhouse test, seed imbibition, wild-type soybean; conditions: 0.25 mg/ml; seeds imbibed 5 hours
Protocol: Compounds are first prepared as 25 mg/ml solutions in ethanol as described above, and then diluted into 40 ml of water to prepare the final 0.25 mg/ml treatment solutions. Visual observations on solubilities (milky, clear, etc.) of the treatment solutions are noted. The treatment solutions are divided into two 20 ml portions, each in 50 ml plastic centrifuge tubes. In addition to treating seeds with solutions containing the test compounds, untreated seeds and seeds imbibed in ethanol-water solution (300 μl ethanol in 30 mls of water) are also included in this experiment as controls. […]
(§1) After imbibition, seeds are removed from the test tubes, placed on wax paper to dry, and planted in bread pans containing farm soil amended with fertilizer at 20 seeds/pan. Seeds are covered with 0.5″ of vermiculite. Pans are transferred to the greenhouse, which had day/night temperatures of 86/68° F. (30/20° C.), and subirrigated. Illumination is at a light intensity of 300-400 μmolm^−2s^−1 photosynthetic photon flux; 16 hours light/8 hours dark. Subsequent waterings are also through sub-irrigation until the test is terminated three weeks later. Observations included the number of dwarf, intermediate, and tall plants; plant height; uniformity of rescue; and any visual effects.

[3] = tested on: constitutively GA-deficient transgenic dwarf soybean line 719; experiment: Experiment I greenhouse test, seed imbibition, GA-deficient soybean; format: in vivo, Glycine max; set-up: Observation on Transgenic Line 719: key: −1: treated plants are shorter as compared to untreated plants; 0: treated plants had the same stature as untreated plants; 1: treated plants are slightly elongated as compared to untreated plants; 2: treated plants are moderately elongated as compared to untreated plants; 3: treated plants are highly elongated as compared to untreated plants; 4: treated plants are extremely elongated as compared to untreated plants; conditions: 0.25 mg/ml; for effect in both the constitutive transgenic dwarf and wild-type soybean lines: imbibition, lines 719 and A3237; for Observation on Transgenic Line 719: seeds imbibed 5 hours
From the text: Seeds are covered with 0.5″ of vermiculite.

[4] = tested on: constitutively GA-deficient transgenic dwarf soybeans (line 719); experiment: Summary of first two greenhouse experiments, rescue of GA-deficient soybeans; format: in vivo, Glycine max; set-up: key: +: transgenic soybeans are rescued; 0: transgenic soybeans are not rescued
Protocol: (§2) Compounds are first prepared as 25 mg/ml solutions in ethanol as described above, and then diluted into 40 ml of water to prepare the final 0.25 mg/ml treatment solutions. Visual observations on solubilities (milky, clear, etc.) of the treatment solutions are noted. The treatment solutions are divided into two 20 ml portions, each in 50 ml plastic centrifuge tubes. In addition to treating seeds with solutions containing the test compounds, untreated seeds and seeds imbibed in ethanol-water solution (300 μl ethanol in 30 mls of water) are also included in this experiment as controls. In the latter case, 20 seeds are imbibed in 30 mls of solution for six hours.
as §1, with “Two soybean varieties are selected for testing: constitutively GA-deficient transgenic dwarf soybean line 719 (plasmid pMON29801, constitutive FMV promoter/asCPScc; which is a mixture of 719−2 and 719+17), and A3237, the wild-type parent material. […] After” for “After”
(§3) All compounds are tested at final concentrations of 0.25, 0.025, and 0.0025 mg/ml except for GA9, which is tested at 0.125, 0.0125, and 0.00125 mg/ml. (The compounds are tested in Experiment I at only one concentration, i.e., 0.25 mg/ml). Test tubes contained […] of ethanol solution per tube. Final volumes are made up to 30 ml with deionized water. After shaking, the treatment solutions (15 ml each) are transferred to each of two 50 ml test tubes. Treatments 1 to 27 are performed on wild-type line A3237; treatments 28 to 54 are performed on constitutively GA-deficient transgenic dwarf soybean line 719 (a mixture of 719−2 and 719+17). Twenty seeds are used in each treatment. Dry seed, ethanol/water-imbibed seed (1% ethanol in water, v/v), and water-imbibed seeds are included as controls. Seeds are imbibed for 6 hours in the test solutions, then planted in bread pans containing Metromix 350 (The Scotts Company, Marysville, Ohio), and covered with 0.5″ Metro-mix. Covered pans are transferred to the greenhouse and subirrigated. Illumination is at a light intensity of 300-400 μmolm^−2s^−1 photosynthetic photon flux; 16 hours light/8 hours dark. Subsequent waterings are also through sub-irrigation until the test is terminated three weeks later. Observations included the number of dwarf, intermediate, and tall plants; plant height; uniformity of rescue; and any visual effects. Digital photographs are also taken.

[5] = tested on: wild-type soybeans (line A3237); experiment: Summary of first two greenhouse experiments, elongation of wild-type soybeans
Protocol: as §2
as §1, with “Two soybean varieties are selected for testing: constitutively GA-deficient transgenic dwarf soybean line 719 (plasmid pMON29801, constitutive FMV promoter/asCPScc; which is a mixture of 719−2 and 719+17), and A3237, the wild-type parent material. […] After” for “After”
as §3

[6] = tested on: GA-deficient transgenic soybean line 719 (R5); experiment: Hilum treatment of soybean seeds, seedling growth and development, GA-deficient soybean; format: in vivo, Glycine max; set-up: key to Emergence timing / Hypocotyl length (6 DAP) / 1st internode length (12 DAP) / 3rd internode length (20 DAP) / 2nd internode length (12 DAP): pos: emergence faster/stem segment longer than controls; 0: emergence timing/stem segment length similar to controls; neg: emergence slower/stem segment shorter than controls; conditions: for Lowest rate where biological activity is observed, 1st internode length (10 DAP) / Lowest rate where biological activity is observed, emergence timing / Lowest rate where biological activity is observed, hypocotyl length (5 DAP) / 1st internode length (12 DAP) / Emergence timing / Hypocotyl length (6 DAP): L719, hilum treatment; for Lowest rate where biological activity is observed, 1st internode length (10 DAP) / Lowest rate where biological activity is observed, emergence timing / Lowest rate where biological activity is observed, hypocotyl length (5 DAP): rate response; for 1st internode length (12 DAP) / Emergence timing / Hypocotyl length (6 DAP): single rate per compound 8.3-16.5 μg/seed; for activity on line 719 in terms of emergence timing and hypocotyl length: single rate, concentration that does not affect normal plant tissue
Protocol: (§4) In the previous experiments, the effect of various GA compounds on transgenic, GA-deficient and wild-type soybean is evaluated by treating seeds with these compounds via imbibition. Several of these compounds are not completely soluble in water, which limited the interpretation of their utility in rescuing GA-deficient dwarf plants. The purpose of this experiment is to reevaluate selected, previously tested compounds, and additional compounds, by introducing them to the seed via the hilum. As shown by the results presented below, direct application of small quantities of GA compounds dissolved in an organic solvent to the hilum is an effective method of treating soybean seeds. As in the previously described experiments, comparison is made between activity on GA-deficient soybean seedlings and normal (wild-type) seedlings. […] soybean seeds are supplied by Asgrow Seed Company (Des Moines, Iowa). Seed of GA-deficient transgenic soybean line 719 is created by transformation of […] soybean with pMON29801 (FMV/antisense CPScc). Fifth generation seed (R5) is used for these experiments. […] When multiple droplets are applied, each 1 μl droplet is allowed to dry before subsequent droplets are added. Ethanol minus compound is used a treatment control. […] (29° C.) and 75° F. (24° C.), respectively. Emergence timing is measured by counting the number of emerged seedlings at different times after planting. Emergence is defined as the presence of cotyledons raised to soil level or above. […] To assess the ability of a seed treatment to deliver biological activity beyond the first internode, measurements are taken on selected treatments after prolonged growth and development.

wild-type A3237 soybean = experiment: Hilum treatment of soybean seeds, seedling growth and development, wild-type soybean; format: in vivo, Glycine max; set-up: key to Emergence timing / Hypocotyl length (6 DAP) / 1st internode length (12 DAP) / 3rd internode length (20 DAP): pos: emergence faster/stem segment longer than controls; 0: emergence timing/stem segment length similar to controls; neg: emergence slower/stem segment shorter than controls; conditions: for Lowest rate where biological activity is observed, 1st internode length (10 DAP) / Lowest rate where biological activity is observed, emergence timing / Lowest rate where biological activity is observed, hypocotyl length (5 DAP): rate response; for 1st internode length (12 DAP) / Emergence timing / Hypocotyl length (6 DAP): single rate per compound 8.3-16.5 μg/seed
Protocol: as §4

[7] = 0.0025 mg/ml solution (ethanol-water)
[8] = 0.025 mg/ml solution (ethanol-water)
[9] = 0.25 mg/ml solution (ethanol-water)

SMILES	Significant Visual Observations on Line 719 ([1]; 0.0025 mg/ml)	Significant Visual Observations on Line 719 ([1]; 0.025 mg/ml)	Observation on Wild-Type Line A3237 [2]	effect in both the constitutive transgenic dwarf and wild-type soybean lines [3]	Observation on Transgenic Line 719 [3]	Rescue of GA-deficient soybeans [4, 7]	Rescue of GA-deficient soybeans [4, 8]	Rescue of GA-deficient soybeans [4, 9]	Elongation of wild-type soybeans [5, 7]	Elongation of wild-type soybeans [5, 8]	Elongation of wild-type soybeans [5, 9]	Lowest rate where biological activity is observed, 1st internode length (10 DAP) [6] [μg/seed]	Lowest rate where biological activity is observed, emergence timing [6] [μg/seed]	Lowest rate where biological activity is observed, hypocotyl length (5 DAP) [6] [μg/seed]	1st internode length (12 DAP) [6]	Emergence timing [6]	Hypocotyl length (6 DAP) [6]	activity on line 719 in terms of emergence timing and hypocotyl length ([6]; hilum)	Lowest rate where biological activity is observed, 1st internode length (10 DAP) (wild-type A3237 soybean) [μg/seed]	Lowest rate where biological activity is observed, emergence timing (wild-type A3237 soybean) [μg/seed]	other results
C=C1C[C@]23C[C@@]1(O)CC[C@H]2[C@@]12CC[C@H](O)[C@@](C)(C(=O)O1)[C@H]2[C@@H]3C(=O)O [GA1]	Good rescue of dwarfs	Good rescue of dwarfs	4	excessive elongation	4	+	+	+	−	+	+										
C=C1C[C@]23C[C@@]1(O)CC[C@H]2[C@@]12CCC[C@@](C)(C(=O)O1)[C@H]2[C@@H]3C(=O)O [GA20]	Good rescue of dwarfs	Good rescue of dwarfs	4	excessive elongation	4	+	+	+	+	+	+										Significant Visual Observations on Line 719 ([1]; 0.25 mg/ml): Excessive elongation
C=C1C[C@]23C[C@H]1CC[C@H]2[C@@]12CC[C@H](O)[C@@](C)(C(=O)O1)[C@H]2[C@@H]3C(=O)O [GA4]			2	slight to medium elongation	2			+			+										
C=C1C[C@]23C[C@@]1(O)CC[C@H]2[C@]1(C)CCC[C@@](C)(C(=O)O)[C@H]1[C@@H]3C(=O)O [GA53]												>10	1	1	0	pos	pos	biologically active	>10	>10	Lowest rate where biological activity is observed, hypocotyl length (5 DAP) (wild-type A3237 soybean): >10 μg/seed; 1st internode length (12 DAP) (wild-type A3237 soybean): neg; Emergence timing (wild-type A3237 soybean): 0; Hypocotyl length (6 DAP) (wild-type A3237 soybean): 0
C=C1C[C@@]23CC[C@@H]4[C@](C)(CO)CCC[C@@]4(C)[C@@H]2CC[C@@H]1C3 [kaurenol]												>100	>100	>100	0	pos	pos	biologically active	>100	>100	confirmation of activity previously observed ([6]; rate up to 100 ng/seed, hilum): not confirmed; Lowest rate where biological activity is observed, hypocotyl length (5 DAP) (wild-type A3237 soybean): >100 μg/seed; 1st internode length (12 DAP) (wild-type A3237 soybean): 0; Emergence timing (wild-type A3237 soybean): 0; Hypocotyl length (6 DAP) (wild-type A3237 soybean): 0
